Data from patent US20250026789A1, “PEPTIDE HAVING INHIBITORY ACTIVITY AGAINST AMYLOID PRECURSOR PROTEIN AND USE THEREOF” ([…]., priority 2021, published 2025).
Entries after “also recorded” stand apart in the source; their conditions may differ.

Key:
Assay type in all cases: cell-based, human
[1] = system: amyloid precursor protein (APP); test: APP expression by real-time qPCR in SH-SY5Y cells; details: peptide 0.001, 0.01, 0.1, or 1 mM, 24 hours, vs control group without peptide
Experimental: (§1) In the present example, the effect of inhibiting the expression of APP by peptide treatment was confirmed. To this end, the prepared peptides were added at a concentration of 0.001, 0.01, 0.1, or 1 mM to SH-SY5Y, which is a human neural cell line obtained by isolating cells from the bone marrow of a human having neuroblastoma and proliferating them, and then the cells were cultured for 24 hours. Afterward, total RNA was extracted from the culture, cDNA was synthesized, and real-time quantitative polymerase chain reaction (qPCR) was performed using the APP primers shown in Table 2 below to measure the expression level of amyloid precursor protein (APP). Meanwhile, a group to which no peptide was added was used as a control group, and a group to which a random peptide was added (NRP1: AFMVDNEAIYDICR (SEQ ID NO: 9)) was used as a comparative group.
as §1, with “of amyloid precursor protein” for “of APP”, “real-time qPCR” for “real-time quantitative polymerase chain reaction (qPCR)”, “2 above” for “2 below”, “of APP.” for “of amyloid precursor protein (APP).”

[2] = system: ADAM 17; test: ADAM 17 expression by real-time qPCR in SH-SY5Y cells; details: peptide 0.001, 0.01, 0.1, or 1 mM, 24 hours, vs control group without peptide
Experimental: (§2) ADAM 17 is an enzyme that removes APP from the cell membrane surface by cleaving it into a non-toxic fragment, sAPPa. Therefore, the increased expression of ADAM 17 may be used as an indicator of a therapeutic effect on a neurodegenerative disease. Specifically, the prepared peptides were added to SH-SY5Y, a neural cell line, at a concentration of 0.001, 0.01, 0.1, or 1 mM, and cultured at 37° C. and 5% CO2 for 24 hours. Afterward, total RNA was extracted from the culture, cDNA was synthesized, and real-time qPCR was performed using the ADAM 17 primers shown in Table 4 below to measure the expression level of […]. In addition, the prepared peptides were added to SH-SY5Y, a human neural cell line, at a concentration of 0.001, 0.01, 0.1, or 1mM, and cultured at 37° C. and 5% CO2 for 24 hours. Afterward, the expression of ADAM 17 protein from the culture and the expression of sAPPa, which was cleaved from APP by ADAM 17 and ADAM 10 and released, were confirmed through Western blotting using antibodies against each protein. In addition, the distribution of APP on the surface of a nerve cell membrane was analyzed using flow cytometric analysis. Meanwhile, a group to which no peptide was added was used as a control group.
The prepared peptides were added to SH-SY5Y, a neural cell line, at a concentration of 0.001, 0.01, 0.1, or 1 mM, and the cells were cultured at 37° C. and 5% CO2 for 24 hours. Afterward, total RNA was extracted from the culture, cDNA was synthesized, and real-time qPCR was performed using the ADAM 17 primers in Table 4 above to measure the expression level of ADAM 17. Meanwhile, a group to which no peptide was added was used as a control group.

[3] = system: IL-10; test: IL-10 expression by real-time qPCR in SH-SY5Y cells; details: peptide 0.001, 0.01, 0.1, or 1 mM, 24 hours, vs control group without peptide
Experimental: In the present example, to confirm the effect inhibiting a neuroinflammatory response by peptide treatment, which is one of the main causes of a neurodegenerative disease, the effect of increasing the expression of IL-10, one of the anti-inflammatory cytokines, was confirmed. Specifically, the prepared peptides were added to SH-SY5Y, a human neural cell line, at a concentration of 0.001, 0.01, 0.1, or 1 mM, and the cells were cultured at 37° C. and 5% CO2 for 24 hours. Afterward, total RNA was extracted from the culture, cDNA was synthesized, and real-time qPCR was performed using the IL-10 primers in Table 6 below to measure the expression level of IL-10. Meanwhile, a group to which no peptide was added was used as a control group.
In the present example to confirm the effect of inhibiting a neuroinflammatory response, which is one of the main causes of a neurodegenerative disease, by peptide treatment, the effect of increasing the expression of IL-10, one of the anti-inflammatory cytokines, was attempted. Specifically, the prepared peptide was added to SH-SY5Y, a human neural cell line, at a concentration of 0.001, 0.01, 0.1, or 1 mM, and the cells were cultured at 37° C. and 5% CO2 for 24 hours. Afterward, total RNA was extracted from the culture, cDNA was synthesized, and real-time qPCR was performed using the IL-10 primers in Table 6 above to measure the expression level of IL-10. Meanwhile, a group to which no peptide was added was used as a control group.

[4] = system: Brain Derived Neurotrophic Factor (BDNF); test: BDNF expression by real-time qPCR in SH-SY5Y cells; details: peptide 0.001, 0.01, 0.1, or 1 mM, 24 hours, vs control group without peptide
Experimental: In the present example, to confirm the effect of improving or treating a degenerative neurological disease through the regeneration of the nervous system by peptide treatment, the effect of increasing the expression of Brain Derived Neurotrophic Factor (BDNF) was examined. Specifically, the prepared peptides were added to SH-SY5Y, a human neural cell line, at a concentration of 0.001, 0.01, 0.1, or 1 mM, and the cells were cultured at 37° C. and 5% CO2 for 24 hours. Afterward, total RNA was extracted from the culture, cDNA was synthesized, and real-time qPCR was performed using the BDNF primers shown in Table 8 below to measure the expression level of BDNF. Meanwhile, a group to which no peptide was added was used as a control group.

[5] = system: IDE (insulin degrading enzyme); test: IDE expression by real-time qPCR in SH-SY5Y cells; details: peptide 0.01, 0.1, or 1 mM, 24 hours, vs control group without peptide
Experimental: IDE is an enzyme that degrades senile plaques produced and aggregated by beta-amyloid (Ab1-42, 1-40). Therefore, the increased expression of IDE may be used as an indicator of a therapeutic effect of a neurodegenerative disease. Specifically, the prepared peptides were added to SH-SY5Y, a human neural cell line, at a concentration of 0.01, 0.1, or 1 mM, and the cells were cultured at 37° C. and 5% CO2 for 24 hours. Afterward, total RNA was extracted from the culture, cDNA was synthesized, and real-time qPCR was performed using the IDE primers in Table 5 below to measure the expression level of IDE. Meanwhile, a group to which no peptide was added was used as a control group.

[6] = system: SH-SY5Y; test: Neurite growth in SH-SY5Y cells (microscope, length); details: peptide 0.01, 0.1, or 1 mM, 24 hours
Experimental: In the present example, to confirm the regeneration of neurons by treatment with the peptides, the growth of neurites was confirmed. Specifically, the prepared peptides were added to SH-SY5Y, a human neural cell line, at a concentration of 0.01, 0.1, or 1 mM, and the cells were cultured for 24 hours. Afterward, the grown neurites were confirmed through a microscope, and their length was measured and evaluated.

[7] = system: ADAM 10; test: ADAM 10 expression by real-time qPCR in SH-SY5Y cells; details: peptide 0.001, 0.01, 0.1, or 1 mM, 24 hours, vs control group without peptide
Experimental: ADAM 10 is an alpha-secretase that cleaves APP into a non-toxic fragment and inhibits the production of beta-amyloid (β-amyloid, Ab1-42, 1-40). Therefore, the increased expression of ADAM 10 may be used as an indicator of a therapeutic effect on a neurodegenerative disease. Specifically, the prepared peptides were added to SH-SY5Y, a human neural cell line, at a concentration of 0.001, 0.01, 0.1, or 1 mM, and the cells were cultured at 37° C. and 5% CO2 for 24 hours. Afterwards, total RNA was extracted from the culture, cDNA was synthesized, and real-time qPCR was performed using the ADAM 10 primers shown in Table 3 below to measure the expression level of ADAM 10. Meanwhile, a group to which no peptide was added was used as a control group.

[8] = system: ADAM 17 protein; test: ADAM 17 protein expression by Western blotting in SH-SY5Y cells; details: peptide 0.001, 0.01, 0.1, or 1 mM, 24 hours, vs control group without peptide
Experimental: as §2

[9] = system: sAPPa; test: sAPPa expression by Western blotting in SH-SY5Y cells; details: peptide 0.001, 0.01, 0.1, or 1 mM, 24 hours, vs control group without peptide
Experimental: as §2

Row | Sequence | expression of APP [1] | expression of ADAM 17 (gene, qPCR) [2] | expression of IL-10 [3] | expression of BDNF [4] | expression of IDE [5] | length of the neurites [6] | expression of ADAM 10 [7] | expression of ADAM 17 protein (Western blotting) [8] | expression of sAPPa (Western blotting) [9]
1 | GRILGFSPFR [Peptide-12] | inhibited | increased | increased | increased; also recorded: more significant | – | – | – | – | –
2 | GRPPGFSLAR [Peptide-11] | inhibited | increased | increased | increased; also recorded: more significant | – | – | – | – | –
3 | IKLLSIVAWAKKKI [Peptide-2] | – | – | – | – | increased | increased | – | – | –
4 | INIKVLIAKKIL [Peptide-4] | inhibited | increased | increased | – | increased | – | increased | increased | increased
5 | INLKALAAKIKIL [Peptide-3] | – | – | increased | – | increased | – | increased | – | –
6 | INLLKIAGKIINIL [Peptide-9] | – | increased | increased; also recorded: more significant | increased | – | – | – | – | –
7 | INLLKSEGKIIKSL [Peptide-10] | – | increased | – | increased | – | – | – | – | –
8 | KALAALAKK [Peptide-8] | inhibited | – | – | – | increased | – | increased | – | –
9 | KALAALAKKIL [Peptide-7] | inhibited | – | increased | – | increased | – | increased | increased | increased
10 | LKLKALAALIKKIL [Peptide-1] | inhibited | increased | increased | – | increased | increased | – | increased | increased
11 | LNIRGLGAKKKI [Peptide-5] | inhibited | – | increased | – | increased | – | increased | – | –
12 | LNLRGLAKKKL [Peptide-6] | – | – | – | – | increased | increased | – | – | –
